Test results from patent publication US20240342167A1, “INHIBITORS OF PORCINE REPRODUCTIVE AND RESPIRATORY SYNDROME VIRUS” (University of Connecticut, priority 2023, published 2024).
Entries after “also recorded” stand apart in the source; their conditions may differ.

Assays:
GFP [1] = target: T1, GFP; test: Microscale thermophoresis (MST) assay: association of B7 with purified GFP (control protein); assay type: binding; details: Monolith NT.115, blue channel, GFP alone (control), values represent Mean, N=3
T1 construct: made in house
Description: Values represent Mean, N=3.
(§1) The recombinant pET28b-GFP-SRCR2/SRCR5 constructs were transformed into Escherichia coli strain BL21 (DE3) (New England Biolabs, MA, USA). The transformed clones were cultured at 37° C. in LB broth with […] kanamycin, induced by adding 1 mM isopropyl β-D-1-thiogalactopyranoside at optical density of 0.6-0.8, and then incubated at 37° C. for 3 h. For protein purification, cells were pelleted and resuspended in xTractor Buffer containing DNAse I, lysozyme solution, and Protease Inhibitor Cocktail (Takara Bio USA, Inc., CA). The suspension was sonicated and centrifuged. The supernatant was incubated with equilibrated TALON Metal Affinity Resin (Takara Bio USA, Inc., CA, USA) and then were eluted from resin with the elution buffer (pH 7.0, 150 mM imidazole, 50 mM NaH2PO4, and 300 mM NaCl). The eluted proteins were concentrated and with buffer exchanged to phosphate-buffered saline (pH 7.4) containing 0.05% Tween-20 (PBST) using Protein Concentrator PES, 10 kD MWCO (Pierce Biotechnology, PA, USA).
The purified GFP, GFP-fused SRCR2 or SRCR5 proteins were mixed with serially diluted compounds. The mixtures were loaded to capillaries and the affinity was measured by Monolith NT.115 (NanoTemper Technologies, Inc., CA, USA) at corresponding MST power with the blue channel. […]

[2] = target: T2, PPI between PRRSV glycoprotein GP2a and CD163-SRCR5 (Sus scrofa, UniProt Q2VL90); test: BiFC assay GP2a/SRCR5; assay type: cell-based, porcine CD163; PRRSV VR2332; details: for Average GP2a (relative fluorescence intensity, SRCR5/GP2a BiFC): 5 μM, HEK293T, 24 h after transfection, relative to NC (DMSO) = 1.00, n=3, 5 µM
T2 construct: SRCR5 domain of porcine CD163 receptor was amplified from cDNA of pig cells; expressed in transfected cells; host or cells: HEK293T
T2 sequence (Q2VL90 477-577): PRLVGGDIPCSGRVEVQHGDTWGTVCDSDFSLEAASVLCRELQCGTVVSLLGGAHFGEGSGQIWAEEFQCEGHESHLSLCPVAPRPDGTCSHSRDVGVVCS
Description: (§2) HEK293T cells were cultivated in 6-well plates in FP medium and transfected with 1 μg XpBiFC-VN155 (I152L)-SRCR5 and 1 μg pBiFC-VC155-GP2/GP4 using Fugene6. After 4 h, cells were digested with 0.05% Typsin-EDTA (ThermoFisher Scientific, MA, USA)) and passaged to 48-well plates which were coated with EmbryoMax 0.1% Gelatin Solution (Sigma-Aldrich, MO, USA) and preloaded with 5 μM B7 analogues. Fluorescence images were taken at 24 h after transfection and fluorescence intensity was measured by image J.

[3] = target: T3, PPI between PRRSV GP4 and CD163-SRCR5 domain (Sus scrofa, UniProt Q2VL90); test: BiFC assay GP4/SRCR5; assay type: cell-based, porcine CD163; PRRSV VR2332; details: for Average GP4 (relative fluorescence intensity, SRCR5/GP4 BiFC): 5 μM, HEK293T, 24 h after transfection, relative to NC (DMSO), n=3, 5 µM
T3 construct: SRCR5 domain of porcine CD163 receptor was amplified from cDNA of pig cells; expressed in transfected cells; host or cells: HEK293T
T3 sequence (Q2VL90 477-577): as above
Description: as §2

GFP-fusion CD163-SRCR5 = target: T4, GFP-fusion CD163-SRCR5 (Sus scrofa, UniProt Q2VL90); test: Microscale thermophoresis (MST), GFP-SRCR5; assay type: binding, porcine; details: read-out: dissociation constant (Kd)
T4 construct: The purified GFP, GFP-fused SRCR2 or SRCR5 proteins were mixed with serially diluted compounds; made in house; host or cells: Escherichia coli BL21 (DE3)
T4 sequence (Q2VL90 477-577 limits assumed): as the sequence (Q2VL90 477-577) above
Description: as §1
(§3) The purified GFP, GFP-fused SRCR2 or SRCR5 proteins were mixed with serially diluted compounds. The mixtures were loaded to capillaries and the affinity was measured by Monolith NT.115 (NanoTemper Technologies, Inc., CA, USA) at corresponding MST power with the blue channel.

GFP-fusion CD163-SRCR2 = target: T5, GFP-fusion CD163-SRCR2 (Sus scrofa, UniProt Q2VL90); test: Microscale thermophoresis (MST), GFP-SRCR2; assay type: binding, porcine
T5 construct: The purified GFP, GFP-fused SRCR2 or SRCR5 proteins were mixed with serially diluted compounds; made in house; host or cells: Escherichia coli BL21 (DE3)
T5 sequence (Q2VL90 158-258 limits assumed): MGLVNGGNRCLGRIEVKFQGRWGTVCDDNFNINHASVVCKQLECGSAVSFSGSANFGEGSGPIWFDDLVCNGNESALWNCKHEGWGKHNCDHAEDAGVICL
Description: as §1, §3

GFP [4] = test: Microscale thermophoresis (MST), GFP; assay type: binding
Description: as §1, §3

Compound	Kd (GFP [1]) [µM]	Average GP2a (relative fluorescence intensity, SRCR5/GP2a BiFC) ([2]; listed as H5, 1440 min)	Average GP2a (relative fluorescence intensity, SRCR5/GP2a BiFC) ([2]; listed as PC, 1440 min)	inhibition of the PPI between PRRSV GP2a and CD163 SRCR5 (in words) ([2]; positive control)	Average GP4 (relative fluorescence intensity, SRCR5/GP4 BiFC) ([3]; listed as H5, 1440 min)	Average GP4 (relative fluorescence intensity, SRCR5/GP4 BiFC) ([3]; listed as PC, 1440 min)	inhibition at 5 µM ([3]; HEK-293T, read-out: reduction of the YFP fluorescence signal compared with NC (inhibition in GP4/SRCR5 BiFC)) [%]	Kd (GFP-fusion CD163-SRCR5) [µM]	association with GFP-SRCR2 (in words) (GFP-fusion CD163-SRCR2)	association with GFP (in words) (GFP [4])
Cc1cc(F)ccc1S(=O)(=O)Nc1nc2ccccc2nc1Nc1cccc(S(=O)(=O)N2CCOCC2)c1 [Compound B7]	2110									
Cc1cc(F)ccc1S(=O)(=O)Nc1nc2ccccc2nc1Nc1cccc(S(=O)(=O)N2CCOCC2)c1 [B7]		0.15	0.02	significantly inhibited	0.06	0.24	> 70	32	little or no association; also recorded: did not interact	little or no association
